We go through 16 molecules from patent US20110251230A1, “THERAPEUTICS FOR NEUROLOGICAL DISORDERS” (UNIVERSITY OF SHEFFIELD, priority 2008, published 2011).

Structures can show the parent of a compound that is named as a salt. Where two headings read alike, the source gives them in different places.

For data set [1], the system named is NRF2-ARE pathway in the CHO 4× ARE-TK cell line. Description: ARE reporter assay in CHO 4×ARE-TK-GFP cell line (GFP induction, EthD1 toxicity). The settings on record: for maximal fold induction: read-out: Average fold GFP induction at maximal response. How it is done:
Chinese Hamster Ovary (CHO), NSC34 mouse motor neuronal cells, C6 (rat) and 1321N1 (human) astrocytic lines were routinely maintained in DMEM supplemented with 10% FBS and penicillin/streptomycin. […] These plasmids were transfected into CHO, C6 and 1321N1 cell lines using Lipofectamine 2000 (Invitrogen) and following 10-14 days of selection in 0.5 mg/ml G418 they were expanded and selected for basal eGFP expression using fluorescence activated cell sorting (BD, FACSAria) with two sequential cell sorts for each cell line. These mixed populations of stable transfectants with basal eGFP expression were used in subsequent assays and designated 4×ARE-TK-GFP for the ARE containing line and TK-GFP for the control cell line. […]
Confluent cultures of 4×ARE-TK-GFP CHO or TK-GFP CHO expressing cells in 96 or 384-well tissue-culture plates were treated with drug (0.01-100 µM in triplicate) or vehicle (0.1-1% DMSO) in FCS-free DMEM in triplicate for 24 hours. The media was removed and replaced with the same volume of PBS containing 0.3 μM EthD1. […] Non-linear regression was used to fit a sigmoidal dose-response curve on a semi-Log plot to calculate the EC50 using GraphPad Prism (GraphPad Software). The reporter assay was conducted in a similar fashion in C6 and 1321N1 astrocyte cell lines stably transfected with the 4×ARE-TK-GFP and TK-GFP constructs except that Eth D1 was added directly in the media and read prior to washing the cells once and reading the […] signal. […]
The compounds were applied in triplicate to confluent cells in 96 well plates in serum free medium for 24 hours and the induction of GFP measured in a fluorescence plate reader. […]

Data set [2] has as its system C6 (rat) astrocytic line. Nature of the data set: C6 oxidative stress assay (serum withdrawal, DCF). The settings on record: for Lowest dose with toxicity: C6; for IC50: C6, 24 h pre-treatment, serum withdrawal, DCF; for Maximal % reduction in Oxidative stress: C6, DCF fluorescence.
Experimental: (§1) A simple oxidative stress assay was used to determine whether preconditioning with NRF2-ARE inducing drugs could protect against a subsequent oxidative stress insult (serum withdrawal). The NSC34, C6 and 1321N1 cells were plated in 96 well tissue culture plates to achieve 30% confluency. […] Media was then replaced with serum free, phenol free media for 5 hrs. […] Cell survival assay was then performed on the cells as protection is measured as % reduction in DCF signal, therefore data points were excluded where a decrease in cell number was measured.
(§2) Briefly methylthiazolyldiphenyl-tetrazolium bromide (MTT) was added to the cells and a blank well to a final concentration 0.5 mg/ml and incubated at 37° C. for 1-3 hrs depending on the cell line used.
The test system of data set [3] is NSC34 mouse motor neuronal cells. Nature of the data set: NSC34 oxidative stress assay (serum withdrawal, DCF). To be noted: for Lowest dose with toxicity: NSC34; for Maximal % reduction in Oxidative stress: NSC34, DCF fluorescence, negative = pro-oxidant.
Experimental: as §1, §2
Data set [4] relates to 1321N1 (human) astrocytic line. Nature of the data set: 1321N1 oxidative stress assay (serum withdrawal, DCF). To be noted: for Lowest dose with toxicity: 1321N1; for IC50: 1321N1, 24 h pre-treatment, serum withdrawal, DCF; for Maximal % reduction in Oxidative stress: 1321N1, DCF fluorescence.
Experimental: as §1, §2
Setting [5] is: Cricetulus griseus, 24 h, read-out: Average EC50, CHO 4×ARE-TK-GFP, GFP induction, 24 h.
[6] abbreviates: Cricetulus griseus, 24 h, read-out: Average EC50.
Where [7] appears, read: read-out: Average EC50, CHO 4×ARE-TK-GFP, GFP induction, 24 h.

Consider `O=c1c2ccccc2[se]n1-c1ccccc1` [Ebselen, reference compound], for which the “Lowest dose with toxicity” value in data set [1] (Chinese hamster, 24 h) is 100 µM; in data set [2] it was “none”; in data set [3] it was “none”; in data set [4] it was “none”. The maximal fold induction in data set [1] (Cricetulus griseus, 24 h) stood at 2.81.
By IC50 is commonly meant the concentration at which inhibition is half-maximal. Regarding `O=C(/C=C/c1ccc(O)cc1)c1ccc(O)cc1O` [Isoliquintigenin, Isoliquiritigenin], the “Lowest dose with toxicity” value is 30 µM in data set [1] (Chinese hamster, 24 h); “none” in data set [2]; 1 µM in data set [3]; “none” in data set [4]. In addition, the maximal fold induction in data set [1] (Cricetulus griseus, 24 h) came to 2.58. Moreover, in data set [2], the concentration for half-maximal inhibition (IC50) is approximately 28 µM.
As usually defined, the EC50 is the concentration giving half of the maximal effect. `CC(COc1ccccc1)NC(C)C(O)c1ccc(O)cc1` (centres unmarked) [Isoxsuprine hydrochloride, reference compound]: the “Lowest dose with toxicity” value is 100 µM in data set [1] (Chinese hamster, 24 h); “none” in data set [2]; “none” in data set [3]; “none” in data set [4]. For the same molecule, the 50% effective concentration (EC50) in data set [1] (setting [5]) was found to be 8.7 µM. Moreover, the maximal fold induction in data set [1] (Cricetulus griseus, 24 h) was found to be 1.52. Further, the half-inhibitory concentration (IC50) in data set [2] was found to be 23 µM.
For the molecule `CCCCCc1c2c(cc(O)c1C(=O)O)OC(=O)c1c(cc(OC)cc1C(=O)CCCC)O2` [Lobaric acid], the “Lowest dose with toxicity” value in data set [1] (Chinese hamster, 24 h) is 100 µM; in data set [2], “none”; in data set [3], “none”; in data set [4], “none”. Moreover, the maximal fold induction in data set [1] (Cricetulus griseus, 24 h) is 2.53.
Consider `O=C(CCBr)N1CCN(C(=O)CCBr)CC1` [Pipobroman, reference compound], for which the “Lowest dose with toxicity” value in data set [1] (Chinese hamster, 24 h) is 100 µM; in data set [2], “none”; in data set [3], “none”; in data set [4], 10 µM. Moreover, in data set [1] (Cricetulus griseus, 24 h), the maximal fold induction came out at 3.21.
On to `C=C(C)/C=C1/C=CC(=O)C(C)=C1` [Retusoquinone], for which the “Lowest dose with toxicity” value was 100 µM in data set [1] (Chinese hamster, 24 h); “none” in data set [2]; “none” in data set [3]; “none” in data set [4]. In data set [1] (setting [5]), the concentration for a half-maximal effect (EC50) was approximately 35 µM. The maximal fold induction in data set [1] (Cricetulus griseus, 24 h) worked out at 2.04.
On to `O=C1C=C2C=C[C@@H]3C[C@@]2(O1)[C@H]1CCCCN31` [Securinine], for which the “Lowest dose with toxicity” value in data set [1] (CHO ARE reporter assay) is 30 µM; in data set [2], “none”; in data set [3], “none”; in data set [4], “none”. Moreover, in data set [1] (setting [6]), the EC50 turned out to be 2.12 µM. The maximal fold induction in data set [1] (Cricetulus griseus, 24 h) was determined as 3. Besides, the results for the IC50 in data set [2] and in data set [4] were 0.645 µM and 18.3 µM, respectively.
`CC1=CC(=O)C(C(C)C)=CC1=O` [Thymoquinone]: the “Lowest dose with toxicity” value in data set [1] (Chinese hamster, 24 h) was 30 µM; in data set [2] it was “none”; in data set [3] it was “none”; in data set [4], “none”. In addition, in data set [1] (Cricetulus griseus, 24 h), the maximal fold induction is 2.58.
Consider `CC(=O)O[C@@H]1C[C@H]2C(C)(C)C(=O)C=C[C@]2(C)[C@H]2CC[C@]3(C)C(=CC(=O)O[C@H]3c3ccoc3)[C@@]21C` [deoxygedunin], for which the “Average fold GFP induction at maximal response” value (from here on “Average fold GFP induction”) in data set [1] (CHO 4×ARE-TK-GFP, 24 h) was 1.82 fold. The “Lowest dose with toxicity” value is 30 µM in data set [1] (CHO ARE reporter assay), “none” in data set [2], 10 µM in data set [3] and 10 µM in data set [4]. The 50% effective concentration (EC50) in data set [1] (setting [7]) came out at 1.15 µM. The concentration for half-maximal inhibition (IC50) in data set [2] turned out to be 2.19 µM; in data set [4] it was 1.41 µM. Further, the “Maximal % reduction in Oxidative stress” value in data set [2] was found to be 61%; in data set [3] it was 7%; in data set [4], 25%.
For the molecule `O=C(CC[N+](=O)[O-])OC[C@H]1O[C@@H](O)[C@H](OC(=O)CC[N+](=O)[O-])[C@@H](OC(=O)CC[N+](=O)[O-])[C@@H]1OC(=O)CC[N+](=O)[O-]` [endecaphyllin X], the “Average fold GFP induction” value in data set [1] (CHO 4×ARE-TK-GFP, 24 h) is reported as 2.15 fold. The “Lowest dose with toxicity” value in data set [1] (CHO ARE reporter assay) is “None”; in data set [2] it was “none”; in data set [3], 10 µM; in data set [4], “none”. The EC50 in data set [1] (setting [7]) stood at 18.8 µM. In addition, the half-inhibitory concentration (IC50) in data set [2] is 3.15 µM. For the same molecule, the figures for the “Maximal % reduction in Oxidative stress” value in data set [2], in data set [3] and in data set [4] were 40%, 0% and 56%, respectively.
For the molecule `Oc1ccc(O)cc1` [hydroquinone, reference compound], the “Lowest dose with toxicity” value in data set [1] (Chinese hamster, 24 h) was 100 µM; in data set [2], “none”; in data set [3] it was “none”; in data set [4], “none”. For the same molecule, in data set [1] (Cricetulus griseus, 24 h), the maximal fold induction was determined as 2.95.
As for `OC[C@H]1O[C@@H](n2cnc3c(NCc4ccco4)ncnc32)[C@H](O)[C@@H]1O` [kinetin riboside], the “Lowest dose with toxicity” value in data set [1] (Chinese hamster, 24 h) was 30 µM; in data set [2], 10 µM; in data set [3], 3 µM; in data set [4] it was 3 µM. In addition, in data set [1] (setting [5]), the EC50 was found to be 3.39 µM. Also, the maximal fold induction in data set [1] (Cricetulus griseus, 24 h) came out at 1.97. The values for the IC50 in data set [2] and in data set [4] were 3.84 µM and 0.246 µM, respectively.
Regarding `CC(=O)CCC(=O)O` [levulinc acid, Levulinic acid], the “Lowest dose with toxicity” value is “None” in data set [1], “none” in data set [2], “none” in data set [3] and “none” in data set [4]. In addition, the maximal fold induction in data set [1] (Cricetulus griseus, 24 h) worked out at 2.94.
Turning to `C=C(C)C(=O)C(=CC(=O)O)OC` [penicillic acid], the “Lowest dose with toxicity” value in data set [1] (CHO ARE reporter assay) was 100 µM; in data set [2] it was “none”; in data set [3] it was “none”; in data set [4], “none”. The EC50 in data set [1] (setting [6]) is 14.9 µM. In addition, the maximal fold induction in data set [1] (Cricetulus griseus, 24 h) turned out to be 2.64. The IC50 in data set [2] was 4.62 µM.
For the molecule `COc1ccc2c(c1)OC/C(=C/c1ccc(OC)c(OC)c1)C2=O` [sappanone A trimethyl ether], the “Average fold GFP induction” value in data set [1] (CHO 4×ARE-TK-GFP, 24 h) was determined as 1.99 fold. The “Lowest dose with toxicity” value is 100 µM in data set [1] (CHO ARE reporter assay), “none” in data set [2], “none” in data set [3] and “none” in data set [4]. Moreover, the EC50 in data set [1] (setting [7]) amounted to 3.5 µM. Besides, the results for the “Maximal % reduction in Oxidative stress” value in data set [2], in data set [3] and in data set [4] were 27%, −60% and 40%, respectively. Moreover, in data set [4], the IC50 came out at 0.279 µM.
`COC(=O)[C@H](O)[C@H]1C(C)(C)[C@H](OC(C)=O)[C@@H]2CC3=C4CC(=O)O[C@@H](c5ccoc5)[C@]4(C)CC[C@@H]3[C@@]1(C)C2=O` [swietenolide 3 acetate]: in data set [1] (CHO 4×ARE-TK-GFP, 24 h), the “Average fold GFP induction” value is recorded as 2.82 fold. Also, the “Lowest dose with toxicity” value was 100 µM in data set [1] (CHO ARE reporter assay), “none” in data set [2], 0.3 µM in data set [3] and “none” in data set [4]. Besides, the EC50 in data set [1] (setting [7]) worked out at 3.5 µM. For the same molecule, the half-inhibitory concentration (IC50) in data set [2] is 4.22 µM. Besides, the figures for the “Maximal % reduction in Oxidative stress” value in data set [2], in data set [3] and in data set [4] were 50%, 0% and 60%, respectively.
